For assay [1], the system named is ET-1-induced phosphatidylinositol hydrolysis in MMQ cells. Briefly: Determination of ET-1-induced phosphatidylinositol (PI) hydrolysis in MMQ cells. Type of assay: cell-based, rat. Particulars: 1 nM ET-1 challenge, read-out: IC50 (inhibition of ET-induced increase in PI turnover). As to the method: MMQ cells (0.4×10^6 cells/mL) were labeled with 10 μCi/mL of [^3H]myo-inositol in RPMI for 16 hours. The cells were washed with PBS, then incubated with Buffer A containing protease inhibitors and 10 mM LiCl for 60 minutes. The cells were then incubated with test compounds for 5 minutes, and then challenged with 1 nM ET-1. ET-1 challenge was terminated by the addition of 1.5 mL of 1:2 (v/v) chloroform-methanol. Total inositol phosphates were extracted after adding chloroform and water to give final proportions of 1:1:0.9 (v/v/v) chloroform-methanol-water as described by Berridge (Biochem. J. 206 587–595 (1982)). The upper aqueous phase (1 mL) was retained and a small portion (100 μL) was counted. The rest of the aqueous sample was analyzed by batch chromatography using anion-exchange resin AG1-X8 (Bio-Rad). […] The results of the above study clearly indicate that the compounds act as functional ET antagonists.

For the next assay, the target named is T1, ETA Receptor (Rattus norvegicus, UniProt P26684).
T1 construct: endogenous in cells; host or cells: MMQ rat pituitary cells (membranes)
T1 sequence (P26684 21-426): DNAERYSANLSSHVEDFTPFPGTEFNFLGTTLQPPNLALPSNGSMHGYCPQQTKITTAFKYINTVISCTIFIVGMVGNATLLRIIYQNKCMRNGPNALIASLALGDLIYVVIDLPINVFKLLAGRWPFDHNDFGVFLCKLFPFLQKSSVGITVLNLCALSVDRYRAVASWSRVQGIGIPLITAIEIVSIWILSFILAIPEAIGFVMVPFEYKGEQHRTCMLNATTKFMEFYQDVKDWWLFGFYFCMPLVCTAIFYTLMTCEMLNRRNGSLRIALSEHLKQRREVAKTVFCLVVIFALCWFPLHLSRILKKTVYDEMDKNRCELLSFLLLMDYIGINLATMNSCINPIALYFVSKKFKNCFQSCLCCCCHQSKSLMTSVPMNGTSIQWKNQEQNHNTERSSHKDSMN
Briefly: [125I]ET-1 binding to membranes from MMQ cells (ETA receptor binding assay, Table 4). The conditions noted are these: for inhibition at 1 µM: read-out: % Inhibition of ETA at 1 μM.

The target of the next assay is T2, human ETB receptor (Homo sapiens, UniProt P24530).
T2 construct: expressed in transfected cells; host or cells: CHO cells, permanently transfected
T2 sequence (P24530 27-442): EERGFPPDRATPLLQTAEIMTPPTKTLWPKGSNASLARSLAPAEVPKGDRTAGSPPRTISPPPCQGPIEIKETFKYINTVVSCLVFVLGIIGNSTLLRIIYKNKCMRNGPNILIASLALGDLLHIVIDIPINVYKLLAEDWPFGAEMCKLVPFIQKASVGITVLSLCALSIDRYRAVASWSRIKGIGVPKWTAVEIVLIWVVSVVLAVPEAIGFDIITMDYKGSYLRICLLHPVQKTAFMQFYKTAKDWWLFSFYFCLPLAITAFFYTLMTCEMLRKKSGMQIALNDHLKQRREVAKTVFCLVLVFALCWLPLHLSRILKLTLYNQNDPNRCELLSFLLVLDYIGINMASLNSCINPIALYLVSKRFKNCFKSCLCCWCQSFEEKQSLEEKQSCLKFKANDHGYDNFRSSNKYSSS
Briefly: ETA/ETB selectivity: (125I)ET-3 competition binding, CHO cells transfected with human ETB receptor (hET-B). Particulars: CHO cells transfected with human ETB receptor; 0.1 nM (125I)ET-3; read-out: hET-B IC50. As to the method:
MMQ cells, porcine cerebellar tissues (known to contain ETB receptors) and chinese hamster ovary cells (CHO) permanently transfected with the human ETA or ETB receptor were homogenized in 25 ml of 10 mM Hepes (pH 7.4) containing 0.25 M sucrose and a protease inhibitor [50 mM EDTA, 0.1 mM PMSF, 5 μg/ml Pepstatin A, and 0.025% Bacitracin] using a micro ultrasonic cell disrupter. The mixture was centrifuged at 1000×g for 10 min. The supernatant was collected and centrifuged at 60,000×g for 60 min. The precipitate was resuspended in 20 mM Tris, pH 7.4 containing protease inhibitor and centrifuged again. The final membrane pellet was resuspended in 20 mM Tris, pH 7.4 containing protease inhibitors and stored at −80° C. until used. Protein content was determined by the Bio-Rad dye-binding protein assay.
Binding assays were performed in 96-well microtiter plates pretreated with 0.1% BSA. Membranes prepared from cells were diluted 100 fold in Buffer B (20 mM Tris, 100 mM NaCl, 10 mM MgCl2, pH 7.4, with 0.2% BSA, 0.1 mM PMSF, 5 μg/mL Pepstatin A, 0.025% bacitracin, and 50 mM EDTA) to a final concentration of 0.2 mg/mL of protein. In competition binding studies, membranes (0.02 mg) were incubated with 0.1 nM of (^125I)ET-1 (for ETA assay in MMQ or CHO cells transfected with human ETA receptor) or (^125I)ET-3 (for ETB assay in porcine cerebellum or CHO cells transfected with human ETB receptor) in Buffer B (final volume: 0.2 mL) in the presence of increasing concentrations of the test compound for 3 hours at 25° C. After incubation, unbound ligands were separated from bound ligands by a vacuum filtration method using glass-fiber filter strips in PHD cell harvesters (Cambridge Technology, Inc., MA), washing the filter strips three times with saline (1 mL). Nonspecific binding was determined in the presence of 1 μM ET-1. IC50 values are calculated using an average of at least two separate determinations.

In another assay the target is T3, human ETA receptor (Homo sapiens, UniProt P25101).
T3 construct: expressed in transfected cells; host or cells: CHO cells, permanently transfected
T3 sequence (P25101 21-427): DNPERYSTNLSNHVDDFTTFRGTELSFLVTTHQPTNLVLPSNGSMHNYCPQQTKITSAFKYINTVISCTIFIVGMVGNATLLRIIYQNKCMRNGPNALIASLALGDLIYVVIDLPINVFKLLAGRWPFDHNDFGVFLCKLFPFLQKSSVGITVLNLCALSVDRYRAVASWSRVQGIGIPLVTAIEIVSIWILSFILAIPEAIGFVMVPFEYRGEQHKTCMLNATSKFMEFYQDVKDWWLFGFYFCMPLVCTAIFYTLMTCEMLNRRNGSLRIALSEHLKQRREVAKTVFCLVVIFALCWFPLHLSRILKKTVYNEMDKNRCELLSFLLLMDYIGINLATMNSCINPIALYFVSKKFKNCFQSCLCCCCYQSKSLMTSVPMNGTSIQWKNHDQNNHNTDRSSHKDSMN
Kind of assay: ETA/ETB selectivity: (125I)ET-1 competition binding, CHO cells transfected with human ETA receptor (hET-A). As to the method: (§1) The mixture was centrifuged at 1000×g for 10 min. The supernatant was collected and centrifuged at 60,000×g for 60 min. The precipitate was resuspended in 20 mM Tris, pH 7.4 containing protease inhibitor and centrifuged again. The final membrane pellet was resuspended in 20 mM Tris, pH 7.4 containing protease inhibitors and stored at −80° C. until used. Protein content was determined by the Bio-Rad dye-binding protein assay.
(§2) Binding assays were performed in 96-well microtiter plates pretreated with 0.1% BSA. […] After incubation, unbound ligands were separated from bound ligands by a vacuum filtration method using glass-fiber filter strips in PHD cell harvesters (Cambridge Technology, Inc., MA), washing the filter strips three times with saline (1 mL). Nonspecific binding was determined in the presence of 1 μM ET-1. IC50 values are calculated using an average of at least two separate determinations.

The target of assay [2] is T4, ETA receptor in MMQ cells (rET-A) (Rattus norvegicus, UniProt P26684).
T4 construct: endogenous in cells; host or cells: MMQ rat pituitary cells (membranes)
T4 sequence (P26684 21-426): T1 sequence (P26684 21-426)
Kind of assay: ETA/ETB selectivity: (125I)ET-1 competition binding, ETA assay in MMQ cell membranes (rET-A). As to the method: as §1, §2

The target in assay [3] is T5, ETB receptors of porcine cerebellar tissues (pET-B) (Sus scrofa, UniProt P35463).
T5 construct: porcine cerebellar tissues (known to contain ETB receptors); from tissue; host or cells: porcine cerebellum (membranes)
T5 sequence (P35463 27-443): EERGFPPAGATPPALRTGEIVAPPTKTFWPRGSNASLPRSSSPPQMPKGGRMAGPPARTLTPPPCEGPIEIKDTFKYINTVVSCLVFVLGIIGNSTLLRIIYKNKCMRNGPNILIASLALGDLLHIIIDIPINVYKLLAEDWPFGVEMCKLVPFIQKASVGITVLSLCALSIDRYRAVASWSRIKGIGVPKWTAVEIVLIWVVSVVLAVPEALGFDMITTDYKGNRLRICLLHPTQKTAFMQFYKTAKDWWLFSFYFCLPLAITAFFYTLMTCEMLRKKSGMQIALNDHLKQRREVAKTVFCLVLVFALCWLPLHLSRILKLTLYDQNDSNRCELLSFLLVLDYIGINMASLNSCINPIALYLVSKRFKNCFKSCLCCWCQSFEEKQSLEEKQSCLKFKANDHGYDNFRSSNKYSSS
Briefly: ETA/ETB selectivity: (125I)ET-3 competition binding, ETB assay in porcine cerebellum membranes (pET-B). As to the method:
as §1, §2

Where [4] appears, read: test compound at 1 μM, 0.1 nM [125I]ET-1, MMQ cell membranes, 4 hours at 25° C.
Where [5] appears, read: CHO cells transfected with human ETA receptor, 0.1 nM (125I)ET-1, read-out: hET-A IC50.
The mark [6] stands for this setting: MMQ cell membranes, 0.1 nM (125I)ET-1, read-out: rET-A IC50.

These results are taken from patent US7208517B1, “Endothelin antagonists” (Abbott Labortories, priority 1994, dated 2007).

In general, IC50 refers to the point on the concentration scale where inhibition reaches its midpoint. For orientation: inhibition means the relative decrease from the control value, in per cent.

Read-outs that look alike come from different tables or passages of the source.

For `CCCN(CCN1CC(c2ccc3c(c2)OCO3)C(C(=O)O)C1c1ccc(OC)cc1)S(=O)(=O)c1ccc(OC(F)(F)F)cc1` (stereo not drawn) [Example 300, trans,trans-2-(4-Methoxyphenyl)-4-(1,3-benzodioxol-5-yl)-1-(2-(N-propyl-N-(4-trifluoromethoxybenzenesulfonyl)amino)ethyl)-pyrrolidine-3-carboxylic acid], in assay [1], the IC50 turned out to be 1.2 nM. At ETA Receptor (setting [4]), the “% Inhibition of ETA at 1 μM” value came to 96.1%.
In the same order, the values of `CCCCN(C)C(=O)CN1CC(c2ccc3c(c2)OCO3)C(C(=O)O)C1c1ccc(OC)cc1OCOC` (stereo not drawn) [Example 31B, trans,trans-2-(4-Methoxy-2-methoxymethoxyphenyl)-4-(1,3-benzodioxol-5-yl)-1-(N-methyl-N-butylaminocarbonylmethyl)-pyrrolidine-3-carboxylic acid] are 2 nM and 93.6%.
For the compound `COc1ccc(C2C(C(=O)O)C(c3ccc4c(c3)OCO4)CN2CC(=O)NCC(C)C)cc1` (stereo not drawn) [Example 18, trans,trans-2-(4-Methoxyphenyl)-4-(1,3-benzodioxol-5-yl)-1-(isobutylaminocarbonylmethyl)-pyrrolidine-3-carboxylic acid], the half-maximal inhibitory concentration (IC50) in assay [1] is 9 nM. Also, the “% Inhibition of ETA at 1 μM” value on ETA Receptor (setting [4]) was 97.3%.
As for `CCCC(CCC)N(C(=O)CN1C[C@H](c2ccc3c(c2)OCO3)[C@@H](C(=O)O)[C@@H]1CC(C)(C)CCC)c1ccc(F)c(C)c1` [compound 511], the half-inhibitory concentration (IC50) came to 15000 nM on human ETB receptor, 0.6 nM on human ETA receptor (setting [5]) and 0.81 nM in assay [2] (setting [6]). Besides, the inhibition at 1 µM at ETA Receptor (setting [4]) came out at 99.2%.
In the case of `CC=CC(C)(C)CC1C(C(=O)O)C(c2ccc3c(c2)OCO3)CN1CC(=O)N(CCCC)CCCC` (stereo not drawn) [compound 552], the IC50 on human ETB receptor is over 96000 nM; at human ETA receptor, 1 nM. Moreover, the inhibition at 1 µM in assay [2] (1 μM test compound, MMQ cell membranes) came to 97.3%.
In the case of `CCCCN(C(=O)CN1CC(c2ccc3c(c2)OCO3)C(C(=O)O)C1c1ccc(OC)cc1)c1ccccc1` (stereo not drawn) [Example 291, trans,trans-2-(4-Methoxyphenyl)-4-(1,3-benzodioxol-5-yl)-1-(N-butyl-N-phenylaminocarbonylmethyl)-pyrrolidine-3-carboxylic acid], the half-maximal inhibitory concentration (IC50) in assay [1] is 9.8 nM. The “% Inhibition of ETA at 1 μM” value on ETA Receptor (setting [4]) was found to be 100.0%.
As to `C=CCNC(=O)CN1CC(c2ccc3c(c2)OCO3)C(C(=O)O)C1c1ccc(OC)cc1` (stereo not drawn) [Example 14, trans,trans-2-(4-Methoxyphenyl)-4-(1,3-benzodioxol-5-yl)-1-(allylaminocarbonylmethyl)-pyrrolidine-3-carboxylic acid], in assay [1], the IC50 was determined as 17 nM. On ETA Receptor (setting [4]), the “% Inhibition of ETA at 1 μM” value turned out to be 86.6%.
In the case of `COc1ccc(C2C(C(=O)O)C(c3ccc4c(c3)OCO4)CN2CC(=O)N(C)C2CCCCC2)cc1` (stereo not drawn) [Example 46, trans,trans-2-(4-Methoxyphenyl)-4-(1,3-benzodioxol-5-yl)-1-(N-methyl-N-cyclohexylaminocarbonylmethyl)-pyrrolidine-3-carboxylic acid], the 50% inhibitory concentration (IC50) in assay [1] was 2 nM. Further, the “% Inhibition of ETA at 1 μM” value at ETA Receptor (setting [4]) came out at 90.4%.
With `CCCCN(CCCC)C(=O)CN1CC(c2ccc3c(c2)OCO3)C(C(=O)O)C1CCc1ccccn1` (stereo not drawn) [compound 519], the IC50 was found to be 19000 nM at human ETB receptor, 0.23 nM at human ETA receptor (setting [5]), 14000 nM in assay [3] and 0.38 nM in assay [2]. For the same compound, the inhibition at 1 µM at ETA Receptor amounted to 99.1%.
In the case of `CCCCN(CCCC)C(=O)CN1CC(c2ccc3c(c2)OCO3)C(C(=O)O)C1CCN1CCCC1=O` (stereo not drawn) [compound 512], the 50% inhibitory concentration (IC50) was at least 60000 nM at human ETB receptor; 0.58 nM at human ETA receptor (setting [5]); over 80000 nM in assay [3] (porcine cerebellum membranes, 0.1 nM (125I)ET-3, read-out: pET-B IC50); 0.42 nM in assay [2]. The inhibition at 1 µM on ETA Receptor (setting [4]) was determined as 98.9%.
As for `CCCCN(CCCN)C(=O)CN1CC(c2ccc3c(c2)OCO3)C(C(=O)O)C1c1ccc(OC)cc1` (stereo not drawn) [compound 526], the results for the IC50 (on human ETB receptor; on human ETA receptor (setting [5]); in assay [2] (setting [6])) were 7400 nM, 17 nM and 42 nM, respectively. At ETA Receptor (setting [4]), the inhibition at 1 µM turned out to be 100%.
